Measured values reported in patent US20250195498A1, “INHIBITOR OF CELLULAR PURINE NUCLEOTIDE SALVAGE PATHWAY ENZYME FOR USE IN THE TREATMENT AND/OR PREVENTION OF HELICOBACTER PYLORI INFECTION AND/OR DISEASE ASSOCIATED WITH SUCH INFECTION AND PHARMACEUTICAL COMPOSITION COMPRISING THE SAME” (UNIWERSYTET WARSZAWSKI, priority 2022, published 2025).
≈ marks a conversion by molar mass, not a printed value. Where “and” joins values, the source holds several entries; their conditions need not be identical. Identical values can stand only once. Like-named read-outs stand apart in the source and are kept apart here.

System: H. pylori strain 26695
Experiment: Growth curve method / MIC in liquid culture, strain 26695
Format: cell-based, Helicobacter pylori
Conditions: Helicobacter pylori
Summary of the method: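 Two-fold serial dilutions in BHI liquid medium with 10% FBS and 1% H. pylori Selective Supplement, inoculated at 10^4-10^5 CFU/ml (OD600=0.05); shaken 24 h at 37° C. under microaerophilic conditions (5% O2, 10% CO2, 85% N2). MIC from OD600 growth; viability confirmed by 4 h urease/phenol red colour change; triplicate.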

[1] = strain 26695, wild-type, read-out: MIC (Table 7)

| Structure (SMILES) | MIC [1] [µM] | MIC (strain 26695, read-out: MIC) |
| --- | --- | --- |
| Cc1ncc(CO)c(C=O)c1O.Cl [PI-h, pyridoxal hydrochloride] | 2.5 | 509 µg/mL and 2500 µM |
| Cc1ncc(COP(=O)(O)O)c(C=O)c1O [PLP, pyridoxal 5′-phosphate] | 2.5 (≈ 0.618 µg/mL) | 618 µg/mL and 2500 µM |
